One series addresses T1, RXR-VDR heterodimer (Homo sapiens, UniProt P11473).
T1 construct: Add the Gal-4-RXR-DEF and VP16-VDR-LBD; expressed in transfected cells; host or cells: SaOS-2 cells
T1 sequence (P11473 127-423 limits assumed): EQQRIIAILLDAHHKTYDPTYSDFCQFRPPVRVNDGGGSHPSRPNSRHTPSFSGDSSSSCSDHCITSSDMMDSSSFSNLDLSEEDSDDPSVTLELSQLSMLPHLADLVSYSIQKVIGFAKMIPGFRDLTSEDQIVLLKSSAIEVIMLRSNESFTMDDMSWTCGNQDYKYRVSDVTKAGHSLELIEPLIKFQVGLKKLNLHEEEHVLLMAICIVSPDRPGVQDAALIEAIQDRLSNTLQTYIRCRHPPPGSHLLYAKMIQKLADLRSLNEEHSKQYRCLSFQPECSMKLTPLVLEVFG
T1 sequence (P19793 201-462 partner limits assumed): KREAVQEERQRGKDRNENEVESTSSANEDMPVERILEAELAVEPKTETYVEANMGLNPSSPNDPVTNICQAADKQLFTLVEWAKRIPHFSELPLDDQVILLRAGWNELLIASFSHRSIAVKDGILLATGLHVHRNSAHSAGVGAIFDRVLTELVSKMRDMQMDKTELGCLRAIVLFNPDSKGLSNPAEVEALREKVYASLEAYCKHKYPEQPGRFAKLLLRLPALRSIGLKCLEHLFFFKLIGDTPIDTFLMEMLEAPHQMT
Put plainly: RXR-VDR heterodimerization assay (SaOS-2 cells). In kind it is cell-based. The source says:
2. The RXR-VDR heterodimerization (SaOS-2 cells) test is described in the “Assay” section of the Description, infra.
1. The RXR-VDR heterodimerAssay:
This assay provides the VDR activity of a test compound.
(1) Materials and Method for RXR-VDR Heterodimerization Assay:
Luciferase Assay Reagent: • Use Steady-Glo Luciferase Reagent from Promega (Cat # E2550) Consists of: • a. E2533 Assay Substrate, lyopholized product and • b. […] DAY 2: Transfection Step 1: DNA and Media • Add plain DMEM media to tubes for mixing the DNA • Add the Reporter gene pFR-LUC • Add the Gal-4-RXR-DEF and VP16-VDR-LBD Step 2: FuGENE and Media • Prepare plain DMEM media in a ubes for mixing FuGENE • Add FuGENE 6 Transfection Reagent • Incubate Step 3: FuGENE, DNA and Media Complex • Add FuGENE Media complex from step 2 to DNA Media complex from step 1 • Incubate Step 4: FuGENE, DNA and Media Complex to-well plate • Add FuGENE-DNA-Media complex from step 3 to each plate • Incubate. […] Day 4: Luciferase Assay • Read the plates after drug treatment • Remove part of media from all the wells and leave remainder • Add Steady-Glo Luciferase Reagent mixture/wells • Incubate • Count each well using a Luminescence counter, Top Count NXT by Packard
Set a delay between plates to reduce the background.

The subject of the next series is rat osteocalcin promoter. Put plainly: OCN (osteocalcin) promoter assay in RG-15 (ROS 17/2.8) cells. The series is classed as cell-based. The method in brief:
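Rat osteoblast-like RG-15 (ROS 17/2.8) cells stably carry the rat osteocalcin promoter fused to luciferase. They were treated with compounds for 48 h in medium with 2% FBS and 0.01% DMSO. EC50 was derived from luciferase activity in cell lysates.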

The target of the next series is T2, VDR (Homo sapiens, UniProt P11473).
T2 construct: the receptor expression vector pGa14-VDR-LBD (10 ng); expressed in transfected cells; host or cells: Caco-2 cells
T2 sequence (P11473 127-423 limits assumed): T1 sequence (P11473 127-423 limits assumed)
Put plainly: VDR CTF (Caco-2 cell co-transfection assay). The series is classed as cell-based. The conditions noted are these: Caco-2 cells. How it is done: 3. The VDR CTF (Caco-2 cells) test is described in the “Assay” section of the Description, infra.
2. The Caco-2 Cell Co-Transfection Assay:
The Caco-2 cell assay is an indicator for the undesirable condition of hypercalcemia. This co-transfection assay is a surrogate assay for in vivo calcemic activity of VDR ligands. […] Preferred assay results are greater than 1000 nM.
(2) Materials and Method for The Caco-2 Cell Assay:
Caco-2 cells, grown in phenol red free, DMEM (Invitrogen, Carlsbad, Calif.) containing 10% charcoal-stripped FCS (Hyclone, Logan, Utah), were transfected with Fugene 6 reagent (Roche Diagnostics, Indianapolis, Ind.). Cells (5000/well) were plated 18 h before transfection in a 96 well plate. The Cells were transfected with Gal-4-responsive reporter pFRLuc (150 ng, Stratagene, La Jolla Calif.) and the receptor expression vector pGa14-VDR-LBD (10 ng), along with Fugene 6 reagent (0.2 µl/well). The DNA-Fugene complex was formed by incubating the mixture for 30 min at room temperature. The cells were transfected in triplicate for 5 h, and treated with various concentrations of VDR ligands (form 0.01 nM to 10,000 nM concentration range) 18 h post-transfection. The luciferase activity was quantified using Steady-Glo reagent kit (Promega, Madison, Wis.) as per manufacturer's specifications.

Series [1] can be described thus: Mouse hypercalcemia assay (six day, serum ionized calcium). In kind it is in vivo. How it is done:
5. The Mouse Hypercalcemia test is described in the “Assay” section of the Description, infra.
4. The Mouse Hypercalcemia Assay
The Mouse Hypercalcemia Assay is a six day hypercalcemia test for toxicity and selectivity. Acceptable test results are levels greater than 300 μg/kg/day. Preferred assay results are levels greater than 1000 μg/kg/day.
(4) Materials and Method for The Mouse Hypercalcemia Assay:
Weanling, virus-antibody-free, five to six weeks old female DBF mice (Harlan, Indianapolis, Ind.) are used for all the studies. Animals are allowed to acclimate to local vivarium conditions for 2 days. […] The animals then are divided into groups with 4-5 mice per group. Different doses of test compounds prepared in 10% Ethanol and 90% sesame oil are administered to mice orally via gavage for 6 days. 1α-25(OH)2D3 0.5 μg/kg/d was also given to one group of mice as the positive control. Serum ionized calcium is evaluated at 6 hours after the last dosing under isoflurane anesthesia by Ciba-Corning Ca++/PH Analyzer, (Model 634, Chiron Diagnostics Corp., East Walpole, Mass.). Raw data of group differences is assessed by analysis of variance (ANOVA) using Fisher's protected least significant difference (PLSD) where the significance level was P<0.05.

Read-outs that look alike come from different tables or passages of the source.

By EC50 is commonly meant the midpoint of the concentration-response curve. On to `CCC(CC)(c1ccc(OCC(O)C(C)(C)C)c(C)c1)c1cc(C)c(C(=O)OC)s1` (single isomer, unassigned) [Ex. 6B], for which the results for the EC50 at RXR-VDR heterodimer, in the series on rat osteocalcin promoter (Rattus norvegicus) and at VDR were 0.323 µM, 0.326 µM and 1.06 µM, respectively.
Take `CCC(CC)(c1ccc(OCS(C)(=O)=O)c(C)c1)c1cc(C)c(CCC(O)C(C)(C)C)s1` (single isomer, unassigned) [Ex. 15B]: the EC50 at RXR-VDR heterodimer amounted to 0.212 µM; on VDR it was 0.245 µM.
Turning to `CCCc1cc(C(CC)(CC)c2ccc(C(=O)O)s2)ccc1OCC(O)C(C)(C)C` (single isomer, unassigned) [Ex. 95, 3′-[4-(2-hydroxy-3,3-dimethylbutoxy)-3-n-propylphenyl]-3′-[5-carboxy-thiophen-2-yl]pentane], in series [1], the “Mouse Hypercal” value was above 6000 µg/kg/day. In addition, the figures for the EC50 on RXR-VDR heterodimer, in the series on rat osteocalcin promoter and at VDR were 0.421 µM, 0.0215 µM and 1.18 µM, respectively.
Regarding `CCc1cc(C(CC)(CC)c2ccc(C(=O)O)s2)ccc1OCC(O)C(C)(C)C` (single isomer, unassigned) [Ex. 101, 3′-[4-(2-hydroxy-3,3-dimethylbutoxy)-3-ethylphenyl]-3′-[5-carboxy-thiophen-2-yl]pentane], the “Mouse Hypercal” value in series [1] is 12000 µg/kg/day. For the same compound, the values for the EC50 at RXR-VDR heterodimer and in the series on rat osteocalcin promoter were 0.379 µM and 0.0294 µM, respectively.
Consider `CCCc1cc(C(CC)(CC)c2ccc(C(=O)O)s2)ccc1OCC(C)(O)C(C)(C)C` (single isomer, unassigned) [Ex. 113, 3′-[4-(2-hydroxy-2,3,3-trimethylbutoxy)-3-n-propylphenyl]-3′-[5-carboxy-thiophen-2-yl]pentane], for which the EC50 at RXR-VDR heterodimer is 0.542 µM; in the series on rat osteocalcin promoter, 0.118 µM.
The matching figures for `CCC(CC)(c1ccc(OCC(C)(O)C(C)(C)C)c(OC)c1)c1ccc(C(=O)N[C@H](C)C(=O)O)s1` (single isomer, unassigned) [Ex. 117, d-3′-[4-(2-hydroxy-2,3,3-trimethylbutoxy)-3-methoxyphenyl]-3′-[5-(carboxy-1-ethylamino)carbonyl-thiophen-2-yl]pentane]: 2.21 µM and 0.101 µM.
`CCC(CC)(c1ccc(OCC(O)C(C)(C)C)c(C)c1)c1ccc(S(=O)(=O)NCC(=O)OC)s1` (single isomer, unassigned) [Ex. 152]: the half-maximal effective concentration (EC50) was 0.474 µM at RXR-VDR heterodimer and 0.11 µM in the series with rat osteocalcin promoter (Rattus norvegicus).
As for `CCC(CC)(c1ccc(OCC(O)C(C)(C)C)c(C)c1)c1ccc(C(=O)OC)s1` (stereo not shown) [Ex. 5], the EC50 with rat osteocalcin promoter (Rattus norvegicus) was found to be 0.146 µM; on VDR it was 1.03 µM.
Regarding `CCC(CC)(c1ccc(OCC(O)C(C)(C)C)c(C)c1)c1cc(C)c(S(=O)(=O)NCC(=O)OC)s1` (stereo not shown) [Ex. 136], the 50% effective concentration (EC50) at RXR-VDR heterodimer worked out at 0.431 µM; at VDR, 0.901 µM.

These data come from US7601850B2, “Phenyl-thiophene type vitamin D receptor modulators” (Eli Lilly and Company, priority 2002, dated 2009).
